In patent US20200071361A1, “ENGINEERED ANTIMICROBIAL AMPHIPHILIC PEPTIDES AND METHODS OF USE” (priority 2017, published 2020):
≈ marks a conversion by molar mass, not a printed value. Like-named read-outs stand apart in the source and are kept apart here.

Legend:
[1] = system: Acinetobacter baumannii ATCC 19606 (non-MDR); experiment: Broth microdilution MIC (Table 2); type: cell-based
Protocol: (§1) Each peptide was formulated in PBS buffer prior to testing. Peptides of SEQ ID NO:5 and SEQ ID NO:8 were brought up in 100% DMSO with 0.002% polysorbate-80 at 1.28 mg/mL (40× the highest final test concentration of 32 mcg/mL). Final test concentration of DMSO was 2.5% in the assay at the first dilution for those two compounds.
(§2) Mueller Hinton II broth (MHB II; BD; Lot Nos. 6258541 and 7143896) was used for MIC testing of aerobic organisms. 0.002% polysorbate 80 (P80) was added to the test medium.
(§3) MIC values were determined using a broth microdilution procedure described by CLSI (1, 3). Automated liquid handlers (Multidrop 384, Labsystems, Helsinki, Finland; Biomek 2000 and Biomek FX, Beckman Coulter, Fullerton Calif.) were used to conduct serial dilutions and liquid transfers.
(§4) To prepare the drug mother plates, which would provide the serial peptide dilutions for the replicate daughter plates, the wells of columns 2-12 of standard 96-well microdilution plates (Costar 3795) were filled with 150 μl of the designated diluent for each row of peptide. The test articles and comparator compounds (300 μl at 40× the highest concentration to be tested) were dispensed into the appropriate wells in column 1. The Biomek 2000 was then used to make 2-fold serial dilutions in the mother plates from column 1 through column 11. The wells of Column 12 contained no drug and served as the organism growth control wells for the assay.
(§5) The daughter plates were loaded with 185 μL per well of MHB II using the Multidrop 384. The daughter plates were completed on the Biomek FX instrument which transferred 5 uL of peptide solution from each well of a mother plate to the corresponding well of each daughter plate in a single step. A standardized inoculum of each test organism was prepared per CLSI methods. The inoculum for each organism was dispensed into sterile reservoirs divided by length (Beckman Coulter), and the Biomek 2000 was used to inoculate the plates. Daughter plates were placed on the Biomek 2000 work surface in reverse orientation so that inoculation took place from low to high drug concentration. The plates were then inoculated with 10 μL of the inoculum resulting in a final cell density of approximately 5×10^5 CFU/mL, per well.
(§6) Plates were stacked 3-4 high, covered with a lid on the top plate, placed in plastic bags, and incubated at 35° C. for 16 to 20 hrs. Following incubation, the microplates were removed from the incubator and viewed from the bottom using a plate viewer. […] The MIC was read and recorded as the lowest concentration of peptide that inhibited visible growth of the organism.

[2] = system: Acinetobacter baumannii ATCC BAA-1797 (MDR); experiment: Broth microdilution MIC (Table 2); type: cell-based
Protocol: as §1, §2, §3, §4, §5, §6

[3] = system: Enterococcus faecalis ATCC 29212 (VSE; QC); experiment: Broth microdilution MIC (Table 2); type: cell-based
Protocol: as §1, §2, §3, §4, §5, §6

[4] = system: Enterococcus faecalis ATCC 700802 (V583 VRE); experiment: Broth microdilution MIC (Table 2); type: cell-based
Protocol: as §1, §2, §3, §4, §5, §6

[5] = system: Enterococcus faecium ATCC 51559 (VRE); experiment: Broth microdilution MIC (Table 2); type: cell-based
Protocol: as §1, §2, §3, §4, §5, §6

[6] = system: Pseudomonas aeruginosa ATCC 27853 (non-MDR; QC); experiment: Broth microdilution MIC (Table 2); type: cell-based
Protocol: as §1, §2, §3, §4, §5, §6

[7] = system: Staphylococcus aureus ATCC 29213 (MSSA; QC); experiment: Broth microdilution MIC (Table 2); type: cell-based
Protocol: as §1, §2, §3, §4, §5, §6

[8] = system: Staphylococcus aureus ATCC 43300 (MRSA); experiment: Broth microdilution MIC (Table 2); type: cell-based
Protocol: as §1, §2, §3, §4, §5, §6

[9] = system: Staphylococcus aureus NRS382 (USA100; HA-MRSA); experiment: Broth microdilution MIC (Table 2); type: cell-based
Protocol: as §1, §2, §3, §4, §5, §6

[10] = system: Streptococcus agalactiae ATCC 13813; experiment: Broth microdilution MIC (Table 2); type: cell-based
Protocol: as §1, §2, §3, §4, §5, §6

[11] = system: Streptococcus pneumoniae ATCC 49619 (QC); experiment: Broth microdilution MIC (Table 2); type: cell-based
Protocol: as §1, §2, §3, §4, §5, §6

[12] = system: Streptococcus pyogenes ATCC 49399; experiment: Broth microdilution MIC (Table 2); type: cell-based
Protocol: as §1, §2, §3, §4, §5, §6

[13] = system: Acinetobacter spp. isolates (n = 104); experiment: Broth microdilution MIC, clinical isolate panel; type: cell-based; details: Acinetobacter spp. (n = 104)
Protocol: (§7) Comparator antibiotics were supplied by Micromyx, and stock solutions were prepared on the first day of testing using solvents recommended by CLSI (1). Stock solutions of all compounds were made at 40× the final testing concentration and stored at −80° C. prior to testing. Information regarding compound source, catalog and lot number, testing concentrations and drug diluent for the comparators and test agent are detailed below in Table 3.
(§8) The test organisms evaluated in this study consisted of clinical isolates from the Micromyx Repository and reference isolates from the American Type Culture Collection (ATCC; Manassas, Va.). The clinical isolates were obtained from USA hospitals. Upon initial receipt at Micromyx, the organisms were sub-cultured onto an appropriate agar medium. Following incubation, colonies were harvested from these plates and cell suspensions prepared and frozen at −80° C. with a cryoprotectant. Prior to testing, the isolates were streaked from frozen vials onto Trypticase Soy Agar with 5% sheep blood (Becton Dickenson [BD]; Sparks, Md.; Lot Nos. 7173618, 7166759, 7208688, 72144895, 7228505 and Remel Lenexa, Kans. Lot No. 212574). Plates were incubated at 35° C. overnight.
(§9) Mueller Hinton II broth (MHB II; BD; Lot Nos. 6258541 and 7143896) was used for MIC testing of aerobic organisms.
as §3
as §4, with “drug” for “peptide”, “drug.” for “peptide.”
as §5, with “µL” for “uL”, “drug” for “peptide”, “methods (1).” for “methods.”, “concentration.” for “concentration. The plates were then inoculated with 10 μL of the inoculum resulting in a final cell density of approximately 5×10^5 CFU/mL, per well.”
as §6, with “drug” for “peptide”
(§10) Clinical breakpoints to determine percent resistance within a given organism group were obtained from CLSI (3), with the exception of colistin for K. pneumoniae, Enterobacter spp., and E. coli, which are only available from EUCAST.

[14] = system: Escherichia coli isolates (n = 101); experiment: Broth microdilution MIC, clinical isolate panel; type: cell-based; details: Escherichia coli (n = 101)
Protocol: as §7, §8, §9, §3
as §4, with “drug” for “peptide”, “drug.” for “peptide.”
as §5, with “µL” for “uL”, “drug” for “peptide”, “methods (1).” for “methods.”, “concentration.” for “concentration. The plates were then inoculated with 10 μL of the inoculum resulting in a final cell density of approximately 5×10^5 CFU/mL, per well.”
as §6, with “drug” for “peptide”
as §10

[15] = system: Klebsiella pneumoniae isolates (n = 101); experiment: Broth microdilution MIC, clinical isolate panel; type: cell-based; details: Klebsiella pneumoniae (n = 101)
Protocol: as §7, §8, §9, §3
as §4, with “drug” for “peptide”, “drug.” for “peptide.”
as §5, with “µL” for “uL”, “drug” for “peptide”, “methods (1).” for “methods.”, “concentration.” for “concentration. The plates were then inoculated with 10 μL of the inoculum resulting in a final cell density of approximately 5×10^5 CFU/mL, per well.”
as §6, with “drug” for “peptide”
as §10

[16] = system: Pseudomonas aeruginosa isolates (n = 109); experiment: Broth microdilution MIC, clinical isolate panel; type: cell-based; details: for % R (percent of isolates resistant, clinical breakpoints): Pseudomonas aeruginosa (n = 109)
Protocol: as §7, §8, §9, §3
as §4, with “drug” for “peptide”, “drug.” for “peptide.”
as §5, with “µL” for “uL”, “drug” for “peptide”, “methods (1).” for “methods.”, “concentration.” for “concentration. The plates were then inoculated with 10 μL of the inoculum resulting in a final cell density of approximately 5×10^5 CFU/mL, per well.”
as §6, with “drug” for “peptide”
as §10

[17] = system: Enterobacter spp. isolates (n = 102); experiment: Broth microdilution MIC, clinical isolate panel; type: cell-based, Enterobacter aerogenes and E. cloacae; details: Enterobacter spp. (n = 102)
Protocol: as §7, §8, §9, §3
as §4, with “drug” for “peptide”, “drug.” for “peptide.”
The daughter plates were loaded with 185 μL per well of MHB II using the Multidrop 384. The daughter plates were completed on the Biomek FX instrument which transferred 5 µL of drug solution from each well of a mother plate to the corresponding well of each daughter plate in a single step. […]
Plates were stacked 3-4 high, covered with a lid on the top plate, placed in plastic bags, and incubated at 35° C. for 16 to 20 hrs. […] The MIC was read and recorded as the lowest concentration of drug that inhibited visible growth of the organism. […]

[18] = system: Escherichia coli ATCC 25922 (QC); experiment: Broth microdilution MIC (Table 2); type: cell-based; details: ATCC25922
Protocol: as §1, §2, §3, §4, §5, §6

[19] = system: Escherichia coli ATCC 35218 (ESBL); experiment: Broth microdilution MIC (Table 2); type: cell-based; details: ATCC35218
Protocol: as §1, §2, §3, §4, §5, §6

[20] = system: Pseudomonas aeruginosa ATCC BAA-2109 (MDR); experiment: Broth microdilution MIC (Table 2); type: cell-based; details: ATCCBAA2109
Protocol: as §1, §2, §3, §4, §5, §6

## Colistin
[1]
  MIC: 0.25 µg/mL
[2]
  MIC: 0.25 µg/mL
[3]
  MIC: >32 µg/mL
[4]
  MIC: >32 µg/mL
[5]
  MIC: >32 µg/mL
[6]
  MIC: 0.25 µg/mL
[7]
  MIC: >32 µg/mL
[8]
  MIC: >32 µg/mL
[9]
  MIC: >32 µg/mL
[10]; ATCC13813
  MIC: >32 µg/mL
[11]
  MIC: >32 µg/mL
[12]
  MIC: >32 µg/mL
[13]
  % R (percent of isolates resistant, clinical breakpoints): 20.2%
[14]
  % R (percent of isolates resistant, clinical breakpoints): 0%
[15]
  % R (percent of isolates resistant, clinical breakpoints): 27.7%
[16]
  % R (percent of isolates resistant, clinical breakpoints): 7.3%
[17]
  % R (percent of isolates resistant, clinical breakpoints): 5.8%

## C[C@@H](O)[C@H]1C(=O)N2C(C(=O)O)=C(S[C@@H]3CN[C@H](C(=O)N(C)C)C3)[C@H](C)[C@H]12 [Meropenem]
[1]; ATCC19606, read-out: MIC
  MIC: 0.5 µg/mL (≈ 1.3 µM)
[2]; ATCCBAA1797, read-out: MIC
  MIC: 0.25 µg/mL (≈ 0.652 µM)
[3]; ATCC29212, read-out: MIC
  MIC: 4 µg/mL (≈ 10.4 µM)
[4]; read-out: MIC
  MIC: 4 µg/mL (≈ 10.4 µM)
[18]
  MIC: 0.015 µg/mL (≈ 0.0391 µM)
[19]
  MIC: 0.015 µg/mL (≈ 0.0391 µM)
[6]; ATCC27853, read-out: MIC
  MIC: 0.25 µg/mL (≈ 0.652 µM)
[20]
  MIC: 0.015 µg/mL (≈ 0.0391 µM)
[7]; read-out: MIC
  MIC: 0.12 µg/mL (≈ 0.313 µM)
[10]; ATCC13813, read-out: MIC
  MIC: 0.008 µg/mL (≈ 0.0209 µM)
[12]; ATCC49399, read-out: MIC
  MIC: ≤ 0.004 µg/mL
[13]
  MIC50: > 8 µg/mL
  MIC90: > 8 µg/mL
[13]; read-out: Mode (MIC)
  MIC: > 8 µg/mL
[14]
  % R (percent of isolates resistant, clinical breakpoints): 1%
  MIC50: 0.015 µg/mL (≈ 0.0391 µM)
  MIC90: 0.03 µg/mL (≈ 0.0782 µM)
[14]; read-out: Mode (MIC)
  MIC: 0.015 µg/mL (≈ 0.0391 µM)
[15]
  % R (percent of isolates resistant, clinical breakpoints): Fifty percent
  MIC50: 4 µg/mL (≈ 10.4 µM)
  MIC90: > 8 µg/mL
[15]; read-out: Mode (MIC)
  MIC: > 8 µg/mL
[16]; Pseudomonas aeruginosa
  MIC50: 0.5 µg/mL (≈ 1.3 µM)
  MIC90: > 8 µg/mL
[16]
  % R (percent of isolates resistant, clinical breakpoints): 20%
[16]; Pseudomonas aeruginosa, read-out: Mode (MIC)
  MIC: 0.25 µg/mL (≈ 0.652 µM)
[17]
  % R (percent of isolates resistant, clinical breakpoints): 3.9%
